Source: patent US8703467B2 (priority 2004, dated 2014)
Where two headings read alike, the source gives them in different places.

System: mice
Description: A formalin-inactivated and a double-inactivated (formalin+UV-irradiation) RRV candidate vaccine was adjusted to 10 μg per dose, and then diluted in 4 fold steps. Each dilution was injected into a group of 10 mice. After 3 weeks the mice were boostered with the corresponding amount of the vaccine. Blood samples were drawn at week 3, before the booster, and at week 6, 3 weeks after the booster. The sera were analyzed by a RRV antibody ELISA. The effective dose 50 (ED50), this is the antigen dose which is sufficient to induce seroconversion in 50% of the immunized mice, was then calculated.

For Formalin, which “number of mice with ELISA-Titer 10^1” value (Week 3, N 60) is on record?
The value was 8.

And the “number of mice with ELISA-Titer 10^2” value (Week 3, N 60)?
Its value is 8.

What about the “number of mice with ELISA-Titer 10^3” value (Week 3, N 60) of the same substance?
Its value is 9.

And the “number of mice with ELISA-Titer 10^4” value (Week 3, N 60)?
The value was 0.

What about the “number of mice with ELISA-Titer 10^5” value (Week 3, N 60) of the same substance?
Its value is 0.

And the “number of mice with ELISA-Titer 10^6” value (Week 3, N 60)?
Its value is 0.

And the “number of mice with ELISA-Titer 10^7” value (Week 3, N 60)?
The value was 0.

And the “number of mice with ELISA-Titer 10^8” value (Week 3, N 60)?
The value was 0.

And the “number of mice with ELISA-Titer <10^1” value (Week 3, N 60)?
The value was 35.

And the “number of mice with ELISA-Titer 10^4” value (Week 3, N 60, listed as formalin group)?
Its value is “no mouse”.

And the “number of mice with ELISA-Titer 10^1” value (Week 6, after booster, N 60)?
The value was 7.

What about the “number of mice with ELISA-Titer 10^2” value (Week 6, after booster, N 60) of the same substance?
Its value is 5.

And the “number of mice with ELISA-Titer 10^3” value (Week 6, after booster, N 60)?
Its value is 15.

What about the “number of mice with ELISA-Titer 10^4” value (Week 6, after booster, N 60) of the same substance?
Its value is 11.

What about the “number of mice with ELISA-Titer 10^5” value (Week 6, after booster, N 60) of the same substance?
Its value is 8.

And the “number of mice with ELISA-Titer 10^6” value (Week 6, after booster, N 60)?
The value was 0.

And the “number of mice with ELISA-Titer 10^7” value (Week 6, after booster, N 60)?
Its value is 0.

What about the “number of mice with ELISA-Titer 10^8” value (Week 6, after booster, N 60) of the same substance?
The value was 0.

What about the “number of mice with ELISA-Titer <10^1” value (Week 6, after booster, N 60) of the same substance?
The value was 14.

And the “ED50 Week 6 (Booster)” value (mice, 3 weeks after the booster)?
Its value is 33 ng.

And the “ED50 Week 3” value (mice, before the booster, antigen dose inducing seroconversion in 50% of immunized mice)?
Its value is 635 ng.
